{"source": "patent US20040214803A1", "about": "“Use of vitamin d3 analogue for the treatment of autoimmune diabetes” (priority 2001, published 2004)", "key": {"[1]": {"tested_on": "aortic allografts", "assay": "Aortic allograft chronic rejection: intimal thickening / luminal reduction", "format": "in vivo, mouse", "details": "0.03 μg/kg p.o. five times per week day 0 to day 30; grafts analysed 60 days after transplantation; vehicle >60%", "experimental": "Mice: BALB/c and C57BL/6 (B6) male mice, weighing 22-24 g, were purchased from Charles River Laboratories (Calco, Italy), and kept under specific pathogen-free conditions. B6 (H-2^b) mice were used as donors and BALB/c (H-2^d) as recipients of aortic allografts.\nAorta transplantation: The entire procedure was performed according to Koulack et al. Development of a mouse aortic transplant model of chronic rejection Microsurgery 1995; 16: 110-3, with the modification described by Hong et al. Improved surgical technique for the establishment of a murine model of aortic transplantation. Microsurgery 1998; 18: 368-71. […]\nDetermination of luminal reduction: Luminal reduction was assessed in 5 μm-thick frozen transverse aortic sections stained with hematoxylin and eosin obtained 60 days post transplantation. To quantify morphological changes in the graft, we used a Leica DC camera (Leica IM 1000 image manager) to acquire the image, and the Leica Qwin software to calculate the luminal reduction percentage. […]\nStatistical analysis: Numerical data are expressed as mean ±SD. Data on percent luminal reduction were analysed by a non parametric Students's t-test.\nThe effect of Compound A in preventing chronic rejection was evaluated using the aortic graft model in the mouse. […] Aortic grafts were analyzed 60 days after transplantation."}, "[2]": {"tested_on": "NOD mice", "assay": "Type 1 DM development in NOD mice (blood glucose monitoring)", "format": "in vivo, mouse", "details": "NOD female mice, 0.03 μg/Kg per os", "experimental": "The non-obese (NOD)/Lt mice used for the experiments were purchased from Charles River Laboratories (Calco, Italy). All mice were kept under specific pathogen-free conditions. Glucose levels in the tail venous blood were quantified using a EUROFlash (Lifescan, Issy les Moulineaux, France). A diagnosis of diabetes was after two sequential glucose measurements higher than 200 mg/dl.\n1,25-dihydroxy-16,23Z-diene-26,27-hexafluoro-19-nor vitamin D3, was dissolved in ethanol (1 mg/ml) and then diluted in miglyol 812. NOD/Lt. The mice were dosed orally with vehicle (miglyol 812) alone or vehicle containing Compound A (0,03 μg/Kg body weight) 5×/week from 8 to 12 or from 8 to 16 weeks of age.\nNOD female mice were treated […] with Compound A (0.03 μg/Kg body weight per os) or vehicle from 8 to 12 or 16 weeks of age and glycemia levels were monitored until 38 weeks of age. […] About 90% of vehicle-treated controls were diabetic by 38 weeks of age compared to only 50% of mice treated with Compound A from 8 to 12 weeks of age. A longer treatment, from 8 to 16 weeks of age, afforded higher protection, and only 16% of NOD mice developed type 1 DM.\nFIG. 1. (page 1/9) Compound A administration to 8-week-old NOD mice inhibits type 1 DM development. NOD mice were treated 5×/week with vehicle (open circles) or with 0.03 μg/Kg Compound A p.o. (filled circles) from 8 to 16 weeks of age, or from 8 to 12 weeks of age (filled squares). Type 1 DM development was monitored twice weekly by measurement of blood glucose levels. The P values were calculated by Mann-Whitney U test."}, "[3]": {"tested_on": "IFN-γ", "assay": "LPS-induced IFN-γ production in vivo (serum ELISA)", "design": "species or system mouse", "details": "0.03 μg/Kg per os 72, 48, 24, 1 h before LPS; serum 3 h post LPS", "experimental": "Lymphokine production was induced in 8 week-old female NOD mice by i.p. injection of 400 μg/mouse Salmonella abortus equi LPS (Sigma). Compound A was administered 72, 48, 24, and 1 h prior to LPS. Blood samples were collected 3 h post LPS injection and serum cytokines measured by ELISA.\nCytokines were quantified by two-sites ELISA. IFN-γ was determined using paired mAb from PharMingen (San Diego, Calif.). For capture, the mAb was AN-18.17.24. Samples were titrated and incubated overnight at 4° C. To detect bound IFN-γ plates were then incubated with biotinylated XMG1.2 mAb. […] The plates were washed again and incubated with the developing substrate p-nitrophenylphosphate disodium (Sigma) in diethanolamine buffer (pH 9.6; 100 μl/well). The reaction was stopped by adding 50 μl/well NaOH 3N, and absorbance was read at 405 nm. ELISA for IL-12p75 was performed as described (Gately, M. K., et al., Current Protocols Immunol. 1995, 3, 15:6.16.11-16.16.15). Cytokines were quantified from two to three titration points using standard curves generated by purified recombinant mouse cytokines and results expressed as cytokine concentration in ng or pg/ml. Detection limits were 15 pg/ml for both cytokines. […]\nFIG. 3. […] IFN-γ, IL-12p75 and serum calcium levels were quantified 3 h post LPS injection. […] The P values were calculated by Mann-Whitney U test (* indicates P<0.05 vs. vehicle-treated NOD mice)."}, "[4]": {"tested_on": "vascularized heart allograft", "assay": "Vascularized heart allograft survival, C57BL/6 into BALB/c recipients", "format": "in vivo, mouse", "from_the_text": "Fully vascularized hearts were grafted into the abdomen of recipient mice as described (Corry, R. J., H. J. Winn, and P. S. Russell. Primarily vascularized allografts of hearts in mice. The role of H-2D, H-2K, and non-H-2 antigens in rejection. Transplantation. 1973, 16:343). Graft survival was monitored by palpation and rejection was confirmed by direct graft inspection."}}}
{"smiles": "C[C@H](C/C=C\\C(O)(C(F)(F)F)C(F)(F)F)C1=CC[C@H]2/C(=C/C=C3C[C@@H](O)C[C@H](O)C3)CCC[C@]12C", "note": "[Compound A, 1,25-dihydroxy-16,23Z-diene-26,27-hexafluoro-19-nor vitamin D3]", "values": [{"measurement": "intimal thickening", "setting": "[1]", "value": "< 20", "unit": "%"}, {"measurement": "incidence of disease compared to controls", "setting": "[2]; from 8 to 12 or 16 weeks of age", "value": "significantly lower"}, {"measurement": "diabetic by 38 weeks of age", "setting": "[2]; treated from 8 to 12 weeks of age, vehicle controls about 90%", "value": 50, "unit": "%"}, {"measurement": "developed type 1 DM (by 38 weeks of age)", "setting": "[2]; treated from 8 to 16 weeks of age, vehicle controls about 90%", "value": 16, "unit": "%"}, {"measurement": "LPS-induced IFN-γ production", "setting": "[3]", "value": "inhibited significantly"}, {"measurement": "Graft survival (days) Mean", "setting": "[4]; 0.01 μg/kg po (d-1, 0, +1) then 0.003 μg/kg po (d+2 until d+30)", "value": 12.00, "unit": "days"}, {"measurement": "Graft survival (days) Mean", "setting": "[4]; 0.1 μg/kg po (d-1, 0, +1) then 0.03 μg/kg (d+2 until d 15)", "value": 38.20, "unit": "days"}]}
